Values after ≈ are worked out from the molar mass of the structure shown. Where two headings read alike, the source gives them in different places. Positions of bridges follow the written chain, without caps; N, C: chain ends. Non-standard residues stand in square brackets, D forms with d. Residues, ends and D or L forms follow the SMILES beside them. Lys(N3) = [N-]=[N+]=NCCCC[C@H](N)C(=O)O; R8 = C=CCCCCCC[C@@](C)(N)C(=O)O; Cba = N[C@@H](CC1CCC1)C(=O)O; S5 = C=CCCC[C@](C)(N)C(=O)O; βAla = NCCC(=O)O
Legend:
EPSA = assay type: physicochemical
[1] = Nanoclick permeability assay
Procedure, shortened: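 Azido-peptide permeability was read as loss of NanoBRET signal (donor 450 nm, acceptor 610 nm) after adding NanoBret618-azide at 10 μM final.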

[2] = Experimental LogD (partition coefficient); conditions: for logD: not stated, Partition Coeff LogD
[3] = Lactate dehydrogenase (LDH) release assay; assay type: cell-based
Procedure, shortened: (§1)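 LDH release, fluorometric membrane-integrity read-out; HCT116 with stable p53-responsive β-lactamase reporter; 8000 cells/well; 0.5% DMSO final; geometric mean, n≥3 biological replicates.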

HCT116 cells = assay: Lactate dehydrogenase (LDH) release assay; assay type: cell-based
Procedure, shortened: as §1

[4] = Solubility assay (kinetic solubility, PBS pH 7); assay type: physicochemical; conditions: pH 7, PBS; for solubility kinetic: pH 7, aqueous buffer, kinetic from dmso stock, read-out: Solubility
Procedure, shortened: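 Quantitation uses an external standard at 100 µM, prepared from 10 mM stock in acetonitrile:methanol:DMSO (10:80:10). Solubility (µM) = (peak area of sample ÷ peak area of standard) × standard concentration.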

[5] = Nanoclick permeability assay EC50

Compound | EPSA (EPSA; EPSA) [A^2] | cell entry EC50 [1] [nM] | Partition Coeff LogD [2] | EC50 ([3]; 0% FBS 4Hr, read-out: LDH: Cytotoxicity assay: EC50) [nM] | EC50 ([3]; 10% FBS 16Hr, read-out: LDH: Cytotoxicity assay: EC50) [nM] | LDH: Cytotoxicity assay: % Effect (HCT116 cells; 0% FBS 4Hr) [%] | LDH: Cytotoxicity assay: % Effect (HCT116 cells; 10% FBS 16Hr) [%] | Solubility [4] | EPSA (EPSA) | cell entry EC50 [1, 5] [nM] | EC50 ([3]; LDH: Cytotoxicity assay: EC50) [nM] | LDH: Cytotoxicity assay: % Effect (HCT116 cells) [%] | logD [2] | solubility kinetic [4] [µM]
CC(=O)N[C@@H](CCCCN=[N+]=[N-])C(=O)N[C@H](C(=O)N[C@@H](Cc1ccccc1)C(=O)N[C@]1(C)CCCCCCC=CCCC[C@@](C)(C(=O)N[C@@H](C)C(=O)N[C@@H](C)C(=O)N[C@@H](C)C(=O)N[C@@H](C)C(=O)N[C@@H](C)C(=O)N[C@H](C)C(N)=O)NC(=O)[C@H](CC2CCC2)NC(=O)[C@H](CCC(N)=O)NC(=O)[C@H](C)NC(=O)[C@H](Cc2c[nH]c3ccccc23)NC(=O)[C@H](Cc2ccc(O)cc2)NC(=O)[C@H](CCC(=O)O)NC1=O)[C@@H](C)O [MP-062] (Ac-[Lys(N3)]TF[R8]EYWAQ[Cba][S5]AAAAA[dA]-NH2; staple 4-11) | 201 | 2080 | Poorly Behaved | > 50700 | > 50700 | 5.433 | 10.66 | Poorly Behaved |  |  |  |  |  | 
CC(=O)N[C@@H](CCC(=O)O)C(=O)N[C@@H](CCCCN=[N+]=[N-])C(=O)NCCCCCC(=O)N[C@H](C(=O)N[C@@H](CO)C(=O)N[C@@H](Cc1ccccc1)C(=O)N[C@]1(C)CCCCCCC=CCCC[C@@](C)(C(N)=O)NC(=O)[C@H](CC(C)C)NC(=O)[C@H](CC(C)C)NC(=O)[C@H](C)NC(=O)[C@H](Cc2c[nH]c3ccccc23)NC(=O)[C@H](Cc2ccc(O)cc2)NC(=O)[C@H](CCC(=O)O)NC1=O)[C@@H](C)O [MP-027] |  |  | Poorly Behaved |  |  |  |  | Poorly Behaved | Poorly Behaved | 415 | > 50000 | 2.385 |  | 
CC(=O)N[C@@H](CCCCN=[N+]=[N-])C(=O)NCCC(=O)N[C@@H](CC(C)C)C(=O)N[C@H](C(=O)N[C@@H](Cc1ccccc1)C(=O)N[C@]1(C)CCCCCCC=CCCC[C@@](C)(C(=O)N[C@@H](CO)C(=O)N[C@@H](C)C(=O)N[C@@H](C)C(N)=O)NC(=O)[C@H](CCC(N)=O)NC(=O)[C@H](Cc2ccc(O)cc2)NC(=O)[C@H](Cc2c[nH]c3ccccc23)NC(=O)[C@H](CC2CCC2)NC(=O)[C@H](CCC(=O)O)NC(=O)[C@H](C)NC1=O)[C@@H](C)O [MP-205] (Ac-[Lys(N3)][βAla]LTF[R8]AE[Cba]WYQ[S5]SAA-NH2; staple 6-13) | 198 |  |  |  |  |  |  |  |  | 276 | > 50700 | -2.394 | 3.02 | 16 (≈ 31.5 µg/mL)
CC(=O)N[C@@H](CCCCN=[N+]=[N-])C(=O)NCCC(=O)N[C@@H](CC(C)C)C(=O)N[C@H](C(=O)N[C@@H](Cc1ccccc1)C(=O)N[C@]1(C)CCCCCCC=CCCC[C@@](C)(C(=O)N[C@@H](CO)C(=O)N[C@@H](C)C(=O)N[C@@H](C)C(N)=O)NC(=O)[C@H](CC2CCC2)NC(=O)[C@H](C)NC(=O)[C@H](CCC(N)=O)NC(=O)[C@H](Cc2c[nH]c3ccccc23)NC(=O)[C@H](Cc2ccc(O)cc2)NC(=O)[C@H](CCC(=O)O)NC1=O)[C@@H](C)O [MP-4203] (Ac-[Lys(N3)][βAla]LTF[R8]EYWQA[Cba][S5]SAA-NH2; staple 6-13) | 190 |  |  |  |  |  |  |  |  | 1200 | > 50700 | 15.26 | 2.71 | 179 (≈ 353 µg/mL)
CC(=O)N[C@@H](CCCCN=[N+]=[N-])C(=O)NCCC(=O)N[C@@H](CC(C)C)C(=O)N[C@H](C(=O)N[C@@H](Cc1ccccc1)C(=O)N[C@]1(C)CCCCC#CC#CCCC[C@@](C)(C(=O)N[C@@H](CO)C(=O)N[C@@H](C)C(=O)N[C@@H](C)C(N)=O)NC(=O)[C@H](CC2CCC2)NC(=O)[C@H](CCC(N)=O)NC(=O)[C@H](C)NC(=O)[C@H](Cc2c[nH]c3ccccc23)NC(=O)[C@H](Cc2ccc(O)cc2)NC(=O)[C@H](CCC(=O)O)NC1=O)[C@@H](C)O [MP-806] | 203 |  |  |  |  |  |  |  |  | 5580 | > 50700 |  | 2.44 | 34 (≈ 66.8 µg/mL)
CC(=O)N[C@@H](CCCCN=[N+]=[N-])C(=O)N[C@@H](CCCCN)C(=O)N[C@@H](CC(C)C)C(=O)N[C@H](C(=O)N[C@@H](Cc1ccccc1)C(=O)N[C@]1(C)CCCCCCC=CCCC[C@@](C)(C(=O)N[C@@H](CO)C(=O)N[C@@H](C)C(=O)N[C@@H](C)C(N)=O)NC(=O)[C@H](CC2CCC2)NC(=O)[C@H](CCC(N)=O)NC(=O)[C@H](C)NC(=O)[C@H](Cc2c[nH]c3ccccc23)NC(=O)[C@H](Cc2ccc(O)cc2)NC(=O)[C@H](CCC(=O)O)NC1=O)[C@@H](C)O [MP-025] | 205 |  |  |  |  |  |  |  |  | 1170 | > 50000 | 3.386 | 2.83 | 3 (≈ 6.08 µg/mL)
CC(=O)N[C@@H](CS)C(=O)N[C@@H](CCCCN=[N+]=[N-])C(=O)NCCC(=O)N[C@@H](C)C(=O)N[C@H](C(=O)N[C@@H](Cc1ccccc1)C(=O)N[C@]1(C)CCCCCCC=CCCC[C@@](C)(C(=O)N[C@@H](C)C(=O)N[C@@H](C)C(=O)N[C@@H](C)C(N)=O)NC(=O)[C@H](CC2CCC2)NC(=O)[C@H](C)NC(=O)[C@H](C)NC(=O)[C@H](Cc2c[nH]c3ccccc23)NC(=O)[C@H](Cc2ccc(O)cc2)NC(=O)[C@H](C)NC1=O)[C@@H](C)O [MP-987] (Ac-C[Lys(N3)][βAla]ATF[R8]AYWAA[Cba][S5]AAA-NH2; staple 7-14) | 180 |  |  |  |  |  |  |  |  | 217 | > 50000 |  | 1.12 | 12 (≈ 22.8 µg/mL)
CC(=O)N[C@@H](CCCCN=[N+]=[N-])C(=O)NCCC(=O)N[C@H](C(=O)N[C@@H](CO)C(=O)N[C@@H](Cc1ccccc1)C(=O)N[C@]1(C)CCCCCCC=CCCC[C@@](C)(C(=O)N[C@@H](CO)C(=O)N[C@@H](C)C(=O)N[C@@H](C)C(N)=O)NC(=O)[C@H](CC(C)C)NC(=O)[C@H](CC(C)C)NC(=O)[C@H](C)NC(=O)[C@H](Cc2c[nH]c3ccccc23)NC(=O)[C@H](Cc2ccc(O)cc2)NC(=O)[C@H](CCC(=O)O)NC1=O)[C@@H](C)O [MP-686] | 193 |  |  |  |  |  |  |  |  | 38.5 | > 50700 |  | 2.7 | 2 (≈ 3.83 µg/mL)
CC(=O)N[C@@H](CCCCN=[N+]=[N-])C(=O)NCCC(=O)N[C@@H](CC(C)C)C(=O)N[C@H](C(=O)N[C@@H](Cc1ccccc1)C(=O)N[C@@]1(C)CCCCCCC=CCCC[C@@](C)(C(=O)N[C@@H](CO)C(=O)N[C@@H](C)C(=O)N[C@@H](C)C(N)=O)NC(=O)[C@H](CC2CCC2)NC(=O)[C@H](CCC(N)=O)N(C)C(=O)[C@H](C)NC(=O)[C@H](Cc2c[nH]c3ccccc23)NC(=O)[C@H](Cc2ccc(O)cc2)NC(=O)[C@H](CCC(=O)O)NC1=O)[C@@H](C)O [MP-297] | 183 |  |  |  |  |  |  |  |  | 1530 | > 50700 |  | 2.5 | 108 (≈ 213 µg/mL)
CC(=O)N[C@@H](CCCNC(=N)N)C(=O)NCCCCCC(=O)N[C@@H](CC(C)C)C(=O)N[C@H](C(=O)N[C@@H](Cc1ccccc1)C(=O)N[C@]1(C)CCCCCCC=CCCC[C@@](C)(C(=O)N[C@@H](CO)C(=O)N[C@@H](C)C(=O)N[C@@H](C)C(N)=O)NC(=O)[C@H](CC2CCC2)NC(=O)[C@H](CCC(N)=O)NC(=O)[C@H](C)NC(=O)[C@H](Cc2c[nH]c3ccccc23)NC(=O)[C@H](Cc2ccc(O)cc2)NC(=O)[C@H](CCC(=O)O)NC1=O)[C@@H](C)O [MP-4001] | 207 |  |  |  |  |  |  |  |  |  | > 50000 | -1.283 | 2.64 | 4 (≈ 8.06 µg/mL)
CC(=O)N[C@@H](CCCCN=[N+]=[N-])C(=O)N[C@@H](CC(C)C)C(=O)N[C@H](C(=O)N[C@@H](Cc1ccccc1)C(=O)N[C@]1(C)CCCCCCC=CCCC[C@@](C)(C(=O)N[C@@H](CCC(=O)O)C(N)=O)NC(=O)[C@H](CC2CCC2)NC(=O)[C@H](CCC(N)=O)NC(=O)[C@H](C)NC(=O)[C@H](Cc2c[nH]c3ccccc23)NC(=O)[C@H](Cc2ccc(O)cc2)NC(=O)[C@H](CCC(=O)O)NC1=O)[C@@H](C)O [MP-4008] (Ac-[Lys(N3)]LTF[R8]EYWAQ[Cba][S5]E-NH2; staple 5-12) |  |  |  |  |  |  |  |  | Poorly Behaved |  | > 50000 | -0.7368 | 2.48 | 23 (≈ 41.4 µg/mL)
CC(=O)N[C@@H](CCCCN=[N+]=[N-])C(=O)NCCC(=O)N[C@@H](CC(C)C)C(=O)N[C@H](C(=O)N[C@@H](CCC(=O)O)C(=O)N[C@]1(C)CCCCCCC=CCCC[C@@](C)(C(=O)N[C@@H](CO)C(=O)N[C@@H](C)C(=O)N[C@@H](C)C(N)=O)NC(=O)[C@H](CC2CCC2)NC(=O)[C@H](CCC(N)=O)NC(=O)[C@H](C)NC(=O)[C@H](Cc2c[nH]c3ccccc23)NC(=O)[C@H](Cc2ccc(O)cc2)NC(=O)[C@H](Cc2ccccc2)NC1=O)[C@@H](C)O [MP-123] (Ac-[Lys(N3)][βAla]LTE[R8]FYWAQ[Cba][S5]SAA-NH2; staple 6-13) | 197 |  |  |  |  |  |  |  |  | 682 | > 50700 |  | 2.66 | 2 (≈ 3.94 µg/mL)

— paper PMC10786919, “Design-rules for stapled peptides with in vivo activity and their application to Mdm2/X antagonists” (Nature Communications, 2024)
